Assay results published in patent US20220079888A1, “PRE-NATAL BETA-CRYPTOXANTHIN BENEFITS CHILDREN” (AGENCY FOR SCIENCE, TECHNOLOGY AND RESEARCH (A*STAR), priority 2019, published 2022).

Tested on: infants at 24 months
Test: Associations of maternal plasma carotenoids concentrations with Bayley Scales of Infant and Toddler Development-III (BSID-III) scores, GUSTO cohort, linear regression
Format: in vivo, human
Conditions: for Cognitive β (95% CI) / Expressive Language β (95% CI) / Fine motor β (95% CI) / Gross motor β (95% CI) / Receptive language β (95% CI): per SD increment in log-transformed maternal plasma concentration
Method: The Bayley Scales of Infant and Toddler Development, 3rd edition (BSID-III) 2006 was administered to infants at 24 (±1) months, in their homes when infants were likely to be alert. This is a standardized test that assesses development of children 1-42 months of age in the following domains: cognitive, receptive and expressive language, and fine and gross motor skills. The test was administered in English, Chinese, Malay or Tamil languages depending on the child's dominant language.
Data for the present analysis were from the Growing Up in Singapore Towards healthy Outcomes (GUSTO) study a prospective mother-offspring cohort in Singapore (34). Detailed descriptions of the GUSTO study have been published Soh, et al 2014 Int. J Epidemiology 43(5):1401-9, which is hereby incorporated by reference. In brief, pregnant women (≥18 years) in their first trimester (<14 weeks) were recruited from the National University Hospital (NUH) and KK Women's and Children's Hospital (KKH) between June 2009 and September 2010. To be eligible for the study, the pregnant person had to: 1) be a Singapore citizen or permanent residents of Chinese, Malay or Indian ethnicity with homogenous parental ethnic background; 2) have an intention to deliver in the two hospitals and to reside in Singapore for the next five years; and 3) consent to donate birth tissues at delivery. Women receiving chemotherapy, psychotropic drugs or were diagnosed with type-1 diabetes were not eligible to participate. The GUSTO study has received ethical approval from the Institutional Review Board of NUH and KKH, and all procedures were conducted according to the guidelines laid down in the Declaration of Helsinki. Written informed consent was obtained from all participants at study recruitment.
A total of 1247 pregnant women participated at baseline. The present analysis included pregnant women who had singleton live births (n=1237), in whom plasma carotenoids concentrations were analyzed (n=701), and their offspring completed neurocognitive assessments at 24 months (n=361).
Administration and scoring was performed by research coordinators trained by the head psychologist from KKH in accordance to the manual. Raw test scores were used as age-specific norms were not available for our population.
Maternal plasma concentrations of individual carotenoids were summarized according to maternal and infant characteristics for the 419 mother-offspring pairs with data for the cognitive test. Differences in concentrations between groups were compared using non-parametric analyses Wilcoxon rank-sum and Kruskal-Wallis tests, as data were not normally distributed. Bonferroni post hoc analysis was performed to identify groups which differed if the Kruskal Wallis test was significant. The values for individual maternal plasma carotenoids were log-transformed, then converted to standard deviation scores (SDS) for easier interpretation. The BSID-III raw scores were also converted to SDS to facilitate comparison across the cognitive tests and domain scales.
Associations of each maternal plasma carotenoids with each BSID-III scale in the children were examined using linear regressions. Several statistical models were employed: Model 1 basic model with adjustment for infant's exact age at cognitive testing; Model 2 additional adjustment for maternal age, ethnicity, education, pre-pregnancy BMI, antenatal depression and anxiety levels (potential confounders). We considered Model 2 to be the main model. Further adjustment for infant gestational age, birth weight and breastfeeding duration was performed to examine if any associations found were acting through these factors (Model 3).
Missing data for covariates were imputed using multiple imputation technique with chained equations (20 times) for the following confounding variables: n=3 maternal education, n=7 EPDS, n=21 STAI, n=40 maternal pre-pregnancy BMI, n=5 infant birthweight and n=10 breastfeeding duration. […]

[1] = Model 1 (adjusted for infant's age at testing), BSID-III at 24 months, n = 361
[2] = Model 1, BSID-III at 24 months, n = 361
[3] = Model 2 (Model 1 plus maternal age, ethnicity, education, pre-pregnancy BMI, parity, antenatal depression and anxiety), 24 months
[4] = Model 2 (adjusted for confounders), 24 months
[5] = Model 3 (Model 2 plus infant gestational age, birth weight, breastfeeding duration), 24 months
[6] = Model 3 (also adjusted for potential mediators), 24 months

SMILES	Cognitive β (95% CI) [1]	Expressive Language β (95% CI) [2]	Fine motor β (95% CI) [2]	Gross motor β (95% CI) [2]	Receptive language β (95% CI) [2]	Cognitive β (95% CI) [3]	Expressive Language β (95% CI) [4]	Fine motor β (95% CI) [4]	Gross motor β (95% CI) [4]	Receptive language β (95% CI) [4]	Cognitive β (95% CI) [5]	Expressive Language β (95% CI) [6]	Fine motor β (95% CI) [6]	Gross motor β (95% CI) [6]	Receptive language β (95% CI) [6]	association of higher maternal concentrations with performance in expressive language (24 months, result in words)	association of higher maternal concentrations with receptive language (24 months, result in words)	Expressive Language β (95% CI) (Model 2 (adjusted for confounders), 24 months, listed as lycopene)	association of higher maternal concentrations with cognitive development in infants (BSID-III scales at 24 months, after adjustment for confounders, result in words)
CC1=C[C@H](O)CC(C)(C)[C@H]1/C=C/C(C)=C/C=C/C(C)=C/C=C/C=C(C)/C=C/C=C(C)/C=C/C1=C(C)C[C@@H](O)CC1(C)C [Lutein, lutein]	0.03 SD	0.004 SD	0.01 SD	0.03 SD	0.08 SD	−0.08 SD	−0.09 SD	0.02 SD	−0.02 SD	−0.04 SD	−0.11 SD	−0.12 SD	−0.04 SD	−0.04 SD	−0.08 SD	–	–	–	–
CC(C)=CCC/C(C)=C/C=C/C(C)=C/C=C/C(C)=C/C=C/C=C(C)/C=C/C=C(C)/C=C/C=C(\C)CCC=C(C)C [Lycopene, lycopene]	0.14 SD	0.15 SD	0.04 SD	0.09 SD	0.11 SD	0.12 SD	0.15 SD	0.03 SD	0.08 SD	0.09 SD	0.11 SD	0.14 SD	0.02 SD	0.09 SD	0.07 SD	associated with better performance	not with receptive language	0.15 SD	–
CC1=C(/C=C/C(C)=C/C=C/C(C)=C/C=C/C=C(C)/C=C/C=C(C)/C=C/C2=C(C)C[C@@H](O)CC2(C)C)C(C)(C)C[C@H](O)C1 [Zeaxanthin, zeaxanthin]	0.01 SD	−0.09 SD	0.04 SD	0.02 SD	−0.10 SD	0.05 SD	−0.05 SD	0.05 SD	0.04 SD	−0.05 SD	0.05 SD	−0.04 SD	0.05 SD	0.05 SD	−0.04 SD	–	–	–	–
CC1=CCCC(C)(C)C1/C=C/C(C)=C/C=C/C(C)=C/C=C/C=C(C)/C=C/C=C(C)/C=C/C1=C(C)CCCC1(C)C (stereo not drawn) [α-carotene]	0.06 SD	0.10 SD	0.08 SD	0.08 SD	0.09 SD	−0.01 SD	0.06 SD	0.06 SD	0.06 SD	0.002 SD	−0.04 SD	0.02 SD	0.05 SD	0.04 SD	−0.04 SD	–	–	–	–
CC1=C(/C=C/C(C)=C/C=C/C(C)=C/C=C/C=C(C)/C=C/C=C(C)/C=C/C2=C(C)CCCC2(C)C)C(C)(C)CCC1 [β-carotene]	0.22 SD	0.18 SD	0.14 SD	0.15 SD	0.23 SD	0.16 SD	0.14 SD	0.12 SD	0.14 SD	0.15 SD	0.13 SD	0.10 SD	0.10 SD	0.12 SD	0.11 SD	–	–	–	–
CC1=C(/C=C/C(C)=C/C=C/C(C)=C/C=C/C=C(C)/C=C/C=C(C)/C=C/C2=C(C)C[C@@H](O)CC2(C)C)C(C)(C)CCC1 [β-cryptoxanthin]	0.21 SD	0.15 SD	0.17 SD	0.17 SD	0.21 SD	0.18 SD	0.13 SD	0.16 SD	0.16 SD	0.17 SD	0.18 SD	0.12 SD	0.15 SD	0.15 SD	0.16 SD	–	–	–	most consistently associated with better cognitive development
